According to patent US12673041B2, “4-aminobut-2-enamide derivatives and salt thereof” (TAIHO PHARMACEUTICAL CO., LTD., priority 2019, dated 2026):

Assays:
[1] = biological target: T1, GMPPNP-bound KRAS G12C protein and cRAF RAS-binding domain (cRAF-RBD) (Homo sapiens, UniProt P01116, G12C); test: Inhibitory activity on interaction between KRAS G12C and cRAF (Alpha technology); type: biochemical; details: GMPPNP-bound KRAS G12C incubated with compound at 25° C. for 1 hour, then cRAF-RBD, Alpha signal; read-out: IC50
T1 construct: made in house; host or cells: E. coli
Experimental: Interaction between recombinant K-Ras4B G12C mutant protein (amino acids 1-169, SEQ ID NO:2) and cRAF RAS-binding domain (cRAF-RBD, amino acids 50-132, Jena Biosciences GmbH) was measured using Alpha technology (PerkinElmer Inc.).
Recombinant KRAS G12C protein with an N-terminal His-tag was expressed in E. coli and purified by affinity chromatography. To prepare GTP-bound form and GDP-bound form of KRAS G12C protein, 50 μM KRAS G12C protein was incubated with 1 mM GMPPNP (Guanosine-5′-[(β,γ)-imido]triphosphate, Tetralithium salt) (Jena Bioscience GmbH) and 1 mM GDP, respectively, in a loading buffer (20 mM Tris-HCl (pH 7.5), 50 mM NaCl, 1 mM DTT and 2.5 mM EDTA) for 1 hour on ice. After the incubation, MgCl2 was added to a final concentration of 10 mM, followed by incubation at room temperature for 30 minutes. The mixture was allowed to pass through a NAP-5 column to remove free nucleotides and purified, and the resultant nucleotide-bound KRAS G12C protein was used for compound evaluation.
For the measurement of the inhibitory activity of compounds on interaction between KRAS G12C and cRAF-RBD, GMPPNP-bound KRAS G12C protein was incubated with various concentrations of compound in a reaction buffer (20 mM Tris-HCl (pH 7.5), 100 mM NaCl, 1 mM MgCl2, 1 mM TCEP, 0.1% Tween 20) at 25° C. for 1 hour. After the incubation, recombinant cRAF-RBD and Alpha detection reagents were added and incubated at room temperature for 1.5 hours for binding. Interaction 5 of KRAS G12C and cRAF-RBD was monitored by measuring Alpha signal. Inhibition % was calculated using the signal from the reaction without test compound (DMSO control) as 0% inhibition and the signal from the reaction using GDP-bound KRAS G12C in place of GMPPNP-bound KRAS G12C as 100% inhibition. IC50 values were calculated from dose titration curve using curve fitting by XLfit software (IDBS).

[2] = biological target: Gppcp-bound recombinant K-Ras4B G12C mutant protein (amino acids 1-169, C51S/C80L/C118S) (Homo sapiens, UniProt P01116, C118S/C51S/C80L/G12C); test: KRASG12C binding assay (LC-MS compound binding rate); details: test compound final concentration 0.5 μM, 25° C., 1 hour
Experimental: As test compounds for the KRASG12C binding assay, the compounds obtained in the “Preparation of Compounds” section were used. Sample solutions each containing a test compound were prepared in the form of a 10 mM DMSO solution.
Gppcp-bound recombinant K-Ras4B G12C mutant protein (amino acids 1-169, C51S/C80L/C118S, SEQ ID NO:1) was diluted with a buffer (1×TBS, 0.1 mM TCEP, 0.25 mM MgCl2, 50 μM Gppcp) to prepare a 50 nM protein solution. K-Ras4B is the major splicing variant of K-Ras. Amino acid sequence of residues 1 to 150 including the compounds' binding region of K-Ras4B is exactly same as that of K-Ras4A, the other splicing variant (Oncotarget. 2016 Jul. 19; 7(29): 46717-46733). A sample solution containing 10 mM test compound was diluted ten-fold with DMSO to make a 1 mM sample solution, and then diluted twenty-fold with DMSO to make a 50 μM sample solution. 1 μL of a 50 μM sample solution was added to 100 μL of a 50 nM protein solution to adjust the final concentration of a test compound to be 0.5 μM in the mixture. The mixtures were stored in an incubator at 25° C. for 1 hour, and 10 μL of a 1×TBS solution containing 2% formic acid was added to stop the reaction, followed by LC-MS measurement. LC-MS measurement was performed using Xevo G2-S Q-Tof manufactured by Waters, and reverse-phase chromatography was performed with a desalting column. A mass spectrum of positive ions was obtained by electrospray. For a mass spectrum, a spectrum of polyvalent ions was collectively converted to a molecular weight by using OpenLynx software by the MaxEnt technique, and a compound binding rate was calculated from the ratio of the signal intensity of a peak that corresponds to the molecular weight of the protein to the signal intensity of a peak that corresponds to the molecular weight of the protein conjugated with the compound.
The binding assay of the test compounds was conducted at a final concentration of 0.5 μM. A binding rate of 80% or more is rated “A”, a binding rate of 60% or more and less than 80% is rated “B”, a binding rate of 40% or more and less than 60% is rated “C”, a binding rate of 20% or more and less than 40% is rated “D”, and a binding rate of less than 20% is rated “E”. N.D.=not determined. Binding rate % is the ratio of KRAS signal intensity at the molecular weight of one molecule adduct to the sum of all the KRAS signal intensity (unbound form and adducts) in mass spectrum.
Thus, binding rate 100% means that only the one molecule adduct was observed without any unbound KRAS.

Row | Compound | IC50 [1] [nM] | binding rate [2]
1 | COCc1nc2cc(-c3cccc(NC(=O)c4ccc(NC(=O)/C=C/CN[C@H]5CC[C@H](OC)CC5)c(C#N)c4)c3)c(C(F)(F)F)cc2n1C [Example 21, 3-cyano-4-((E)-4-(((1r,4r)-4-methoxycyclohexyl)amino)but-2-enamido)-N-(3-(2-(methoxymethyl)-1-methyl-6-(trifluoromethyl)-1H-benzo[d]imidazol-5-yl)phenyl)benzamide] | 220 | A (A binding rate of 80% or more is rated “A”)
2 | COCc1nc2cc(-c3cccc(NC(=O)c4ccc(NC(=O)/C=C/CNC5C[C@H]6CC[C@@H](C5)O6)c(C#N)c4)c3)c(C(F)(F)F)cc2n1C (stereo partly drawn) [Example 22, 4-((E)-4-(((1R,5S)-8-oxabicyclo[3.2.1]octan-3-yl)amino)but-2-enamido)-3-cyano-N-(3-(2-(methoxymethyl)-1-methyl-6-(trifluoromethyl)-1H-benzo[d]imidazol-5-yl)phenyl)benzamide] | 140 | A (A binding rate of 80% or more is rated “A”)
3 | CO[C@H](C)c1nc2cc(-c3cccc(NC(=O)c4ccc(NC(=O)/C=C/CN[C@H]5CC[C@H](OC)CC5)c(C#N)c4)c3)c(C(F)(F)F)cc2n1C [Example 23, 3-cyano-4-((E)-4-(((1r,4r)-4-methoxycyclohexyl)amino)but-2-enamido)-N-(3-(2-((R)-1-methoxyethyl)-1-methyl-6-(trifluoromethyl)-1H-benzo[d]imidazol-5-yl)phenyl)benzamide] | 220 | A (A binding rate of 80% or more is rated “A”)
4 | COCc1nc2cc(-c3cccc(NC(=O)c4ccc(NC(=O)/C=C/CNC5(C)CCC6(CC5)OCCO6)c(C#N)c4)c3)c(C(F)(F)F)cc2n1C [Example 24, (E)-3-cyano-N-(3-(2-(methoxymethyl)-1-methyl-6-(trifluoromethyl)-1H-benzo[d]imidazol-5-yl)phenyl)-4-(4-((8-methyl-1,4-dioxaspiro[4.5]decan-8-yl)amino)but-2-enamido)benzamide] | 150 | A (A binding rate of 80% or more is rated “A”)
5 | COCc1nc2cc(-c3cccc(NC(=O)c4ccc(NC(=O)/C=C/CNC5CC6C(C5)C6(F)F)c(C#N)c4)c3)c(C(F)(F)F)cc2n1C (stereo not shown) [Example 25, (E)-3-cyano-4-(4-((6,6-difluorobicyclo[3.1.0]hexan-3-yl)amino)but-2-enamido)-N-(3-(2-(methoxymethyl)-1-methyl-6-(trifluoromethyl)-1H-benzo[d]imidazol-5-yl)phenyl)benzamide] | 250 | A (A binding rate of 80% or more is rated “A”)
6 | COCc1nc2cc(-c3cccc(NC(=O)c4ccc(NC(=O)/C=C/CNC5CCC5)c(C#N)c4)c3)c(C(F)(F)F)cc2n1C [Example 26, (E)-3-cyano-4-(4-(cyclobutylamino)but-2-enamido)-N-(3-(2-(methoxymethyl)-1-methyl-6-(trifluoromethyl)-1H-benzo[d]imidazol-5-yl)phenyl)benzamide] | 420 | C (a binding rate of 40% or more and less than 60% is rated “C”)
7 | COCc1nc2cc(-c3cccc(NC(=O)c4ccc(NC(=O)/C=C/CNC5CCCCC5)c(C#N)c4)c3)c(C(F)(F)F)cc2n1C [Example 27, (E)-3-cyano-4-(4-(cyclohexylamino)but-2-enamido)-N-(3-(2-(methoxymethyl)-1-methyl-6-(trifluoromethyl)-1H-benzo[d]imidazol-5-yl)phenyl)benzamide] | 350 | B (a binding rate of 60% or more and less than 80% is rated “B”)
8 | CO[C@H]1C[C@H](NC/C=C/C(=O)Nc2ccc(C(=O)Nc3cccc(-c4cc5nc6n(c5cc4C(F)(F)F)CCC6)c3)cc2C#N)C1 [Example 28, 3-cyano-4-((E)-4-(((1r,3r)-3-methoxycyclobutyl)amino)but-2-enamido)-N-(3-(7-(trifluoromethyl)-2,3-dihydro-1H-benzo[d]pyrrolo[1,2-a]imidazol-6-yl)phenyl)benzamide] | 100 | A (A binding rate of 80% or more is rated “A”)
